Data on 16 compounds can be found in patent US20070219234A1, “Thienopyridine Derivatives” (priority 2004, published 2007).

On to `CC(=O)OC1CCN(c2ccnc3sc(C(N)=O)c(N)c23)CC1` [Example 20, 3-amino-4-(4-acetoxypiperidin-1-yl)thieno[2,3-b]pyridine-2-carboxamide], for which the melting point (usually the temperature of the solid-liquid transition) lay within 231 to 235 °C.

`NC(=O)c1sc2nccc(N3CCCN(c4ccccc4Cl)CC3)c2c1N` [Example 61, 3-amino-4-[4-(2-chlorophenyl)-1,4-diazepan-1-yl]thieno[2,3-b]pyridine-2-carboxamide] came in with a melting point of 206 to 210 °C.

The compound `NC(=O)c1sc2nccc(N3CC[S+]([O-])CC3)c2c1N` [Example 32, 3-amino-4-(1-oxothiomorpholine-4-yl)thieno[2,3-b]pyridine-2-carboxamide] yielded a melting point of 165 to 172 °C.

For the compound `NC(=O)c1sc2nccc(N3CCCN(c4ccc(OCc5ccccc5)cc4)CC3)c2c1N` [Example 79, 3-amino-4-{4-[4-(benzyloxy)phenyl]-1,4-diazepan-1-yl}thieno[2,3-b]pyridine-2-carboxamide], the melting point lay in the range of 211 to 213 °C.

Consider `Cc1cc(N2CCCN(c3ccnc4sc(C(N)=O)c(N)c34)CC2)ccc1F` [Example 69, 3-amino-4-[4-(4-fluoro-3-methylphenyl)-1,4-diazepan-1-yl]thieno[2,3-b]pyridine-2-carboxamide], for which the melting point fell in the range of 194 to 197 °C.

The compound `NC(=O)c1sc2nccc(NCCCc3ccccc3)c2c1N` [Example 9, 3-amino-4-[(3-phenylpropyl)amino]thieno[2,3-b]pyridine-2-carboxamide] displayed a melting point of 232 to 234 °C.

In turn, `NC(=O)c1sc2nccc(N3CCCC(c4ccccc4)C3)c2c1N` (stereo not shown) [Example 35, 3-amino-4-(3-phenylpiperidin-1-yl)thieno[2,3-b]pyridine-2-carboxamide] displayed a melting point of 267 to 269 °C.

Consider `CC(C)(C)CNc1ccnc2sc(C(N)=O)c(N)c12` [Example 6, 3-amino-4-(neopentylamino)thieno[2,3-b]pyridine-2-carboxamide], for which the melting point fell in the range of 238 to 240 °C.

Take `Cl.Cl.NC(=O)c1sc2nccc(N3CCNCC3)c2c1N`: the melting point fell in the range of 270 to 280 °C.

`NC(=O)c1sc2nccc(N3CCCN(c4ccc(Br)cc4)CC3)c2c1N` [Example 82, 3-amino-4-[4-(4-bromophenyl)-1,4-diazepan-1-yl]thieno[2,3-b]pyridine-2-carboxamide] showed a melting point of 170 to 173 °C.

`NC(=O)c1sc2nccc(N3CCCN(c4ccc(Cl)cc4)CC3)c2c1N` [Example 60, 3-amino-4-[4-(4-chlorophenyl)-1,4-diazepan-1-yl]thieno[2,3-b]pyridine-2-carboxamide] had a melting point of 92 to 96 °C.

As for `NC(=O)c1sc2nccc(N3CCCN(c4ncnc5ccccc45)CC3)c2c1N` [Example 89, 3-amino-4-(4-quinazolin-4-yl-1,4-diazepan-1-yl)thieno[2,3-b]pyridine-2-carboxamide], the melting point fell in the range of 228 to 231 °C.

For the compound `COc1ccccc1N1CCN(c2ccnc3sc(C(N)=O)c(N)c23)CC1` [Example 53, 3-amino-4-[4-(2-methoxyphenyl)piperazin-1-yl]thieno[2,3-b]pyridine-2-carboxamide], the melting point is 294 °C (dec.).

`NC(=O)c1sc2nccc(N3CCCC(O)C3)c2c1N` (stereo not shown) [Example 36, 3-amino-4-(3-hydroxypiperidin-1-yl)thieno[2,3-b]pyridine-2-carboxamide] displayed a melting point of 208 to 211 °C.

`COc1ccc(N2CCN(c3ccnc4sc(C(N)=O)c(N)c34)CC2)cc1` [Example 49, 3-amino-4-[4-(4-methoxyphenyl)piperazin-1-yl]thieno[2,3-b]pyridine-2-carboxamide]: the melting point is 275 °C (dec.).

As to `NC(=O)c1sc2nccc(NC3CCCCC3)c2c1N` [Example 11, 3-amino-4-(cyclohexylamino)thieno[2,3-b]pyridine-2-carboxamide], the melting point was 244 to 247 °C.
